Laboratory results published in paper PMC6440464 (PeerJ, 2019).
Like-named read-outs stand apart in the source and are kept apart here.

Assay: Pharmacokinetics study after separate oral administration in rats (HPLC-MS of plasma)
Format: in vivo, Sprague-Dawley rats
Conditions: for AUC(0-t) / MRT last / Tmax / CL/F / Cmax / half-life: po; for Tmax: read-out: Tmax (converted); for CL/F: read-out: CLz/F; for Cmax: read-out: Cmax; for half-life: read-out: t1/2z
Method: A total of 15 SPF Sprague-Dawley rats (SD, male, 190–210 g) were provided by Sino-British Sippr/BK Lab Animal Company Ltd. (Shanghai, China). The rats were kept in standard conditions (22–26 °C; 40–60% relative humidity; 12 h light/dark cycle). Throughout the rearing period, the animals had access to food and water ad libitum. Animal experiments were conducted in accordance with the standard ethical guidelines of the Laboratory Animal Management Committee of Jiangsu Province (SYXK (SU) 2016-0011).
Following 1 week of adaptation, the rats were fasted for about 12 h before dosing, with free access to water. […] After administration of the first dose, blood samples were taken from the retro-orbital vein at 0, 5, 15, 30, 60, 90, 120, 180, 240, 360, 480, and 1,440 min and collected in heparinized tubes. The samples were centrifuged at 3,500 rpm for 10 min at 4 °C and the plasma was stored at −80 °C until analysis.
An Agilent 1,200 series HPLC system (Agilent Technologies, Waldbronn, Germany) equipped with a quaternary pump on-line degasser, auto-sampler and column oven, and an SL G1946D quadruple mass spectrometer (Agilent Technologies, Santa Clara, CA, USA) equipped with an electrospray ionization (ESI) source, were used for separation and detection. Data were acquired and analyzed using Agilent ChemStation Software Version A.01.00 (Agilent Technologies, Santa Clara, CA, USA).
The separation was carried out with an Amethyst C18-H column (150 × 4.6 mm, 5 μm, Sepax Technologies, Newark, DE, USA) with a guard column SB-C18 (10 × 4.6 mm, 5 μm, Phenomenex Technologies, Torrance, USA) at a constant temperature of 25 °C.
The mass spectra were acquired using ESI interfaced to a single quadrupole mass spectrometer. The ionization conditions were as follows: drying gas (N2) flow rate of 11 L/min, drying gas temperature of 350 °C, nebulizing gas (N2) pressure of 35 psi, capillary voltage of 3,500 V, quad temperature of 100 °C, and fragment voltage of 110 V. A series of m/z were monitored using a timed program according to the retention times and characteristic ions for the corresponding HPLC-MS peak obtained by scanning from m/z 100–1,000 in the standard sample.
Briefly, an aliquot of plasma sample (100 μL) was spiked with 5% formic acid (10 μL) in centrifuge tube. Subsequently, hydrochloric acid (2 mol/L, 10 μL) and IS solution (960.00 ng/mL, 20 μL) were added. Then ethyl acetate/n-butyl alcohol (1:1 v/v; 1,000 μL) was used to extract the components. The samples were then homogenized by vortex mixing and centrifuged for 10 min at 14,000 rpm. After centrifugation, 800 μL of supernatant was transferred to another centrifuge tube and the sample was evaporated to dryness. The residues were dissolved in 100 μL of methanol and centrifuged for 10 min at 12,000 rpm. 50 μL of the supernatant was transferred to the vial and an aliquot of 5 μL was injected into the HPLC-MS system for analysis.
DAS 2.0 (Chinese Pharmacological Association, Shanghai, China) was used to calculate the pharmacokinetic parameters using the non-compartment model, including the area under curve (AUC), mean residence time (MRT), half-life ( t1/2z), clearance rate (CL), maximum plasma concentration (Cmax), and time (Tmax). All results are expressed as mean ± standard deviation (SD). One way analysis of variance followed by […] was used for comparison of different groups using Graph pad prism 5 software. A p-value of <0.05 was considered statistically significant.

[1] = male, Sprague-Dawley, rat, plasma, 50 mg/kg, IQ group (oral IQ 50 mg/kg), rat plasma, labelled substance = analyte, mean of 5 rats
[2] = male, Sprague-Dawley, rat, plasma, 50 mg/kg, IQ group: oral IQ 50 mg/kg, rat plasma, mean ± SD, n = 5
[3] = male, Sprague-Dawley, rat, plasma, 50 mg/kg, QG group (oral QG 50 mg/kg), rat plasma, labelled substance = analyte, mean of 5 rats
[4] = male, Sprague-Dawley, rat, plasma, 50 mg/kg, QG group: oral QG 50 mg/kg, rat plasma, mean ± SD, n = 5
[5] = male, Sprague-Dawley, rat, plasma, 50 mg/kg, Qr group (oral Qr 50 mg/kg), rat plasma, labelled substance = analyte, mean of 5 rats
[6] = male, Sprague-Dawley, rat, plasma, 50 mg/kg, Qr group: oral Qr 50 mg/kg, rat plasma, mean ± SD, n = 5

In the case of `O=C(O)[C@H]1O[C@@H](Oc2c(-c3ccc(O)c(O)c3)oc3cc(O)cc(O)c3c2=O)[C@H](O)[C@@H](O)[C@@H]1O` [QG, Quercetin-3-O-β-D-glucuronide], the “AUC0−t” value (Qr group: oral Qr 50 mg/kg, rat plasma, mean ± SD, n = 5) is reported as 1,150.0 ± 454.2 mg/L*min, the “Shape of mean plasma concentration-time profile” value (after oral administration of QG 50 mg/kg) is reported as “clear double peak phenomenon” and the concentration at 120 min (male, Sprague-Dawley, rat, plasma, oral, 50 mg/kg, IQ group (oral IQ 50 mg/kg), 120 min, individual rats NO. 1-5, read-out: Plasma concentrations) is reported as 872 ng/mL. It also gave an AUC(0-t) (male, Sprague-Dawley, rat, plasma, 50 mg/kg, IQ group (oral IQ 50 mg/kg), rat plasma, labelled substance = analyte, individual rats No1-No5, read-out: AUC(0-t) (converted)) of 8820 ng·h/mL, an MRT last (male, Sprague-Dawley, rat, plasma, 50 mg/kg, IQ group (oral IQ 50 mg/kg), rat plasma, labelled substance = analyte, individual rats No1-No5, read-out: MRT(0-t) (converted)) of 4.63 h and a Tmax (male, Sprague-Dawley, rat, plasma, 50 mg/kg, IQ group (oral IQ 50 mg/kg), rat plasma, labelled substance = analyte, individual rats No1-No5) of 0.5 h. It also gave an AUC(0-t) (male, Sprague-Dawley, rat, plasma, 50 mg/kg, IQ group (oral IQ 50 mg/kg), rat plasma, labelled substance = analyte, mean of 5 rats, read-out: AUC(0-t) (converted)) of 11200 ng·h/mL, a CL/F [1] of 70 mL/min/kg and a Cmax [1] of 3900 ng/mL. It also gave an MRT last (male, Sprague-Dawley, rat, plasma, 50 mg/kg, IQ group (oral IQ 50 mg/kg), rat plasma, labelled substance = analyte, mean of 5 rats, read-out: MRT(0-t) (converted)) of 5.93 h, a Tmax [1] of 0.5 h and a half-life [1] of 8.73 h. The AUC(0-t) (male, Sprague-Dawley, rat, plasma, 50 mg/kg, IQ group: oral IQ 50 mg/kg, rat plasma, mean ± SD, n = 5, read-out: AUC0−t (converted)) was 11200 ng·h/mL, the Cmax [2] was 3910 ± 1340 ng/mL and the MRT last (male, Sprague-Dawley, rat, plasma, 50 mg/kg, IQ group: oral IQ 50 mg/kg, rat plasma, mean ± SD, n = 5, read-out: MRT0−t (converted)) was 5.93 h. The Tmax [2] was 0.5 h, the half-life [2] was 8.72 ± 3.17 h and the MRT last (male, Sprague-Dawley, rat, plasma, 50 mg/kg, QG group (oral QG 50 mg/kg), rat plasma, labelled substance = analyte, individual rats No1-No5, read-out: MRT(0-t) (converted)) was 6.52 h. For the same compound, the half-life (male, Sprague-Dawley, rat, plasma, 50 mg/kg, QG group (oral QG 50 mg/kg), rat plasma, labelled substance = analyte, individual rats No1-No5) was 4.98 h, the AUC(0-t) (male, Sprague-Dawley, rat, plasma, 50 mg/kg, QG group (oral QG 50 mg/kg), rat plasma, labelled substance = analyte, mean of 5 rats, read-out: AUC(0-t) (converted)) was 16000 ng·h/mL and the CL/F [3] was 71 mL/min/kg. The Cmax [3] was 2040 ng/mL, the MRT last (male, Sprague-Dawley, rat, plasma, 50 mg/kg, QG group (oral QG 50 mg/kg), rat plasma, labelled substance = analyte, mean of 5 rats, read-out: MRT(0-t) (converted)) was 7.3 h and the Tmax [3] was 3.7 h. The half-life [3] was 6.27 h, the AUC(0-t) (male, Sprague-Dawley, rat, plasma, 50 mg/kg, QG group: oral QG 50 mg/kg, rat plasma, mean ± SD, n = 5, read-out: AUC0−t (converted)) was 16000 ng·h/mL and the Cmax [4] was 2040 ± 850 ng/mL. It also gave an MRT last (male, Sprague-Dawley, rat, plasma, 50 mg/kg, QG group: oral QG 50 mg/kg, rat plasma, mean ± SD, n = 5, read-out: MRT0−t (converted)) of 7.3 h, a Tmax [4] of 3.7 h and a half-life [4] of 6.27 ± 1.59 h. The Tmax (male, Sprague-Dawley, rat, plasma, 50 mg/kg, Qr group (oral Qr 50 mg/kg), rat plasma, labelled substance = analyte, individual rats No1-No5) was 0.5 h, the AUC(0-t) (male, Sprague-Dawley, rat, plasma, 50 mg/kg, Qr group (oral Qr 50 mg/kg), rat plasma, labelled substance = analyte, mean of 5 rats, read-out: AUC(0-t) (converted)) was 19200 ng·h/mL and the CL/F [5] was 43 mL/min/kg. For the same compound, the Cmax [5] was 6460 ng/mL, the MRT last (male, Sprague-Dawley, rat, plasma, 50 mg/kg, Qr group (oral Qr 50 mg/kg), rat plasma, labelled substance = analyte, mean of 5 rats, read-out: MRT(0-t) (converted)) was 5.27 h and the Tmax [5] was 0.7 h. For the same compound, the half-life [5] was 9.1 h, the AUC(0-t) (male, Sprague-Dawley, rat, plasma, 50 mg/kg, Qr group: oral Qr 50 mg/kg, rat plasma, mean ± SD, n = 5, read-out: AUC0−t (converted)) was 25800 ng·h/mL and the Cmax [6] was 6460 ± 2940 ng/mL. It also gave an MRT last (male, Sprague-Dawley, rat, plasma, 50 mg/kg, Qr group: oral Qr 50 mg/kg, rat plasma, mean ± SD, n = 5, read-out: MRT0−t (converted)) of 5.26 h, a Tmax [6] of 0.7 h and a half-life [6] of 9.1 ± 7.28 h.
